From patent US20250312296A1, “PETROLATUM-BASED PHMB COMPOSITIONS AND METHODS FOR THE TREATMENT OF INFLAMMATORY SKIN DISEASE” (GLOBAL HEALTH SOLUTIONS, INC., priority 2020, published 2025) come the findings set out here.

The data set deals with Rabbit Skin. As to the kind of experiment: Rabbit skin irritation. Here is the method: Within 24 hours to 4 hours before test application, the backs of female albino New Zealand White rabbits were clipped free of hair, exposing 2 test and 2 control areas on each side of the spine with a size of approximately 15 cm×15 cm. The two test sites are located on the left cranial section and the right caudal section of the dorsal region. The two control sites are located on the left caudal and right cranial section of the dorsal region. FIG. 4 depicts the arrangement of test and control sites. The exposed skin is wiped with alcohol and dried. Rabbits of acceptable skin quality were selected and used for testing.
A 25×25 mm gauze patch saturated with 0.5 mL of 0.9% NaCl is used for the control and applied to the clipped control sites. The patches are secured using hypoallergenic, waterproof, surgical tape over the test and control sites. The animal's trunk is securely wrapped so as to maintain the position of the patches. Patches are left applied for a minimum of four hours.
After patch removal, the test and control sites were then scored for erythema and edema at 1, 24, 48 and 72 hours after patch removal. Only the 24, 48, and 72 hour observations were scored and used for calculations. If no response was expected, testing was conducted using three animals per test article. If irritation was anticipated, one animal was tested initially. If the first animal received a score of 2 or less for either erythema or edema, 2 additional rabbits were used to conclude the test.
This total was divided by the total number of observations. The same was done for the control sites. […] These scores for each animal were added and divided by the total number of animals to give the Primary Irritation Index. […] For any response, the Maximum Irritation Response, the time of onset of the response and the time of maximum response was recorded.
To positively validate the test, 10% sodium dodecyl sulfate (SDS), which is a known dermal irritant, in petroleum jelly was applied to a 2.5 cm×2.5 cm gauze patch. As a negative control, 0.5 mL of 0.9% NaCl was applied to a 2.5 cm×2.5 cm gauze patch. A Primary Irritation Index in the moderate to severe range is considered a positive result. The test system and methods utilized were the same as described above.

The mark [1] stands for this setting: per rabbit, scores of 24, 48 and 72 hour observations added, patch at least four hours, sulfate.

Values joined by “and” are separate entries in the source; they are usually repeats but may differ in a detail not shown here. Equal entries are not always repeated.

Consider `CCCCCCCCCCCCOS(=O)(=O)[O-].[Na+]` [10% SDS, sodium dodecyl sulfate], for which the “Primary Irritation Index” value (3 animals, 0-0.4 Negligible, 0.5-1.9 Slight, 2-4.9 Moderate, 5-8 Severe) was “Total Average (19.3) = 6.4 Primary Irritation Index”. Under setting [1], the “ED (edema) score” value was 19 and 21 and 14; the “ER (erythema) score” value is 21 and 23 and 18. Further, the “ER + ED = Total” value (per rabbit, scores of 24, 48 and 72 hour observations added, sulfate) was 40 and 44 and 32.
